Reference: patent publication US20100035866A1, “NOVEL SUBSTITUTED-1, 1-DIOXO-BENZO[1,2,4]THIADIAZIN-3ONES, PREPARATION METHOD THEREOF, AND PHARMACEUTICAL COMPOSITION CONTAINING THE SAME” (KOREA RESEARCH INSTITUTE OF CHEMICAL TECHNOLOGY, priority 2006, published 2010)

Assays:
hD4.2 receptor = biological target: T1, hD4.2 receptor (Homo sapiens, UniProt P21917, DEL265-296); test: Dopamine receptor family binding: D4 ([3H]YM-09151-2); settings: [3H]YM-09151-2 0.06 nM; read-out: Binding affinity, IC50 (nM), D4
T1 construct: purchased BioSignal Packard Inc., Montreal, Canada
T1 sequence (P21917 with tags, fused parts or gaps DEL265-296): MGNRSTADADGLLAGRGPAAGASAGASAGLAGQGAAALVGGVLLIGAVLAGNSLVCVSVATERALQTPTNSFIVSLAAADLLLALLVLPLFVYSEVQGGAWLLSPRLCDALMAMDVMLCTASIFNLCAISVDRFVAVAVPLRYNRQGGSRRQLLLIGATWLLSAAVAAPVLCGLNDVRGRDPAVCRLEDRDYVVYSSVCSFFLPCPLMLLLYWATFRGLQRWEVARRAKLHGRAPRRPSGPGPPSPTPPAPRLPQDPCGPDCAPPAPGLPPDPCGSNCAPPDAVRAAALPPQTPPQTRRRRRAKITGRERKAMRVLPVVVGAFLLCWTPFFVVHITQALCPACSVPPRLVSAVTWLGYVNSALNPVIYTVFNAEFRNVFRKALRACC
Description: (§1) 2-2: Binding Assays of Dopamine Receptor Family
(§2) The radioligands used were [^3H]spiperone (for hD2L and hD3 receptors, 1 nM) and [^3H] YM-09151-2 (for hD4.2 receptor, 0.06 nM). Radioligand bindings were performed by the protocols provided by the supplier of receptor membranes (BioSignal Packard Inc., Montreal, Canada). Briefly, the buffer used in D2 or D3 receptor binding assay was 50 mM Tris-HCl (pH 7.4), 10 mM MgCl2, 1 mM EDTA, or 50 mM Tris-HCl (pH 7.4), 5 mM MgCl2 5 mM EDTA, 5 mM KCl, 1.5 mM CaCl2, 120 mM NaCl, respectively. In [^3H] YM-09151-2 receptor binding assays, the buffer containing 50 mM Tris-HCl (pH 7.4), 5 mM MgCl2, 5 mM EDTA, 5 mM KCl and 1.5 mM CaCl2 was used. […] Competition binding studies were carried out with 7-8 concentrations of the test compound run in duplicate tubes, and isotherms from three assays were calculated by computerized nonlinear regression analysis (GraphPad Prism Program, San Diego, […]) to yield median inhibitory concentration (IC50) values.

[1] = biological target: Human serotonin 5-HT6 receptor (Homo sapiens, UniProt P50406); test: [3H]LSD binding assay on cloned 5-HT6 receptor; settings: IC50 (nM)
5-HT1a = biological target: T2, 5-HT1a (Homo sapiens, UniProt P08908); test: Radioligand binding, 5-HT receptor family: 5-HT1a ([3H]8-OH-DPAT); settings: CHO-K1 human recombinant receptor, [3H]8-OH-DPAT 0.5 nM; read-out: Binding affinity, IC50 (nM), 5-HT1a
T2 construct: purchased Euroscreen/BioSignal Packard Inc
T2 sequence (P08908 1-422): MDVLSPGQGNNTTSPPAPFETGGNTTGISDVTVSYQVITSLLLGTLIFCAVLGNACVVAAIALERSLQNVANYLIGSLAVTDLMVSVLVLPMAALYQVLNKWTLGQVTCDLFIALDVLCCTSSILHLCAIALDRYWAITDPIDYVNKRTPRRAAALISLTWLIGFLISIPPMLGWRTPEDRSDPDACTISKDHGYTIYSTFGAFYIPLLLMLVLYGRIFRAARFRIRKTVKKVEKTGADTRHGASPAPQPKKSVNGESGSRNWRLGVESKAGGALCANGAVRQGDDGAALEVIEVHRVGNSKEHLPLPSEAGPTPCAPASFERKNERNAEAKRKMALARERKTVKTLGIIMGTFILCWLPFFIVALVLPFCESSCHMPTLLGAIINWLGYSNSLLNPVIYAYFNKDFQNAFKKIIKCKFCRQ

D1 = D1 (Homo sapiens, UniProt P21728); test: Dopamine receptor family binding: D1; settings: read-out: Binding affinity, IC50 (nM), D1
hD2L receptor = biological target: T3, hD2L receptor (Homo sapiens, UniProt P14416); test: Dopamine receptor family binding: D2 ([3H]spiperone); settings: [3H]spiperone 1 nM; read-out: Binding affinity, IC50 (nM), D2
T3 construct: purchased BioSignal Packard Inc., Montreal, Canada
Description: as §1, §2

hD3 receptor = biological target: T4, hD3 receptor (Homo sapiens, UniProt P35462); test: Dopamine receptor family binding: D3 ([3H]spiperone); settings: [3H]spiperone 1 nM; read-out: Binding affinity, IC50 (nM), D3
T4 construct: purchased BioSignal Packard Inc., Montreal, Canada

5-HT2a = biological target: T5, 5-HT2a (Homo sapiens, UniProt P28223); test: Radioligand binding, 5-HT receptor family: 5-HT2a ([3H]Ketanserin); settings: CHO-K1 human recombinant receptor, [3H]Ketanserin 1 nM; read-out: Binding affinity, IC50 (nM), 5-HT2a
T5 construct: purchased Euroscreen/BioSignal Packard Inc

5-HT2c = biological target: T6, 5-HT2c (Homo sapiens, UniProt P28335); test: Radioligand binding, 5-HT receptor family: 5-HT2c ([3H]Mesulergine); settings: CHO-K1 human recombinant receptor, [3H]Mesulergine 1 nM; read-out: Binding affinity, IC50 (nM), 5-HT2c
T6 construct: purchased Euroscreen/BioSignal Packard Inc
T6 sequence (P28335 33-458): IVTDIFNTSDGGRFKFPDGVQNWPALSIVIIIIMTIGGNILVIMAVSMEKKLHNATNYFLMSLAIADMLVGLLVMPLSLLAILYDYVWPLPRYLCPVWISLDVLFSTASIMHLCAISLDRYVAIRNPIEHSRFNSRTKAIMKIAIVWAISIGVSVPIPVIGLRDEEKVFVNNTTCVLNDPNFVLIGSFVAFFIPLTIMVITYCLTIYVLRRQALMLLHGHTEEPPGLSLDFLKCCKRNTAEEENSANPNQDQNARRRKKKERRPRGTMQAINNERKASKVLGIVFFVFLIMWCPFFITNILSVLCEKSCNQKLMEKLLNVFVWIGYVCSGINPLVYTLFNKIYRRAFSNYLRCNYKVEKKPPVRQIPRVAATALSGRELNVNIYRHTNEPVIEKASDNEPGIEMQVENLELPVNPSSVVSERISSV

5-HT7 = biological target: T7, 5-HT7 (Homo sapiens, UniProt P34969); test: Radioligand binding, 5-HT receptor family: 5-HT7 ([3H]LSD); settings: CHO-K1 human recombinant receptor, [3H]LSD 3 nM; read-out: Binding affinity, IC50 (nM), 5-HT7
T7 construct: purchased Euroscreen/BioSignal Packard Inc
Description: Radioligand bindings were performed according to the test method provided by the supplier of receptor membrane (Euroscreen/BioSignal Packard Inc.). The detailed assay conditions and the results were shown in the following Table 3 and Table 4, respectively.

[2] = Binding affinity, 5-HT6, Table 4
[3] = binding affinity to the 5-HT6 receptor, Table 2, 1.87 nM [3H]LSD, cloned human receptor membranes from Sf21 cells, 37° C. 60 min

T3 sequence (P14416 whole entry): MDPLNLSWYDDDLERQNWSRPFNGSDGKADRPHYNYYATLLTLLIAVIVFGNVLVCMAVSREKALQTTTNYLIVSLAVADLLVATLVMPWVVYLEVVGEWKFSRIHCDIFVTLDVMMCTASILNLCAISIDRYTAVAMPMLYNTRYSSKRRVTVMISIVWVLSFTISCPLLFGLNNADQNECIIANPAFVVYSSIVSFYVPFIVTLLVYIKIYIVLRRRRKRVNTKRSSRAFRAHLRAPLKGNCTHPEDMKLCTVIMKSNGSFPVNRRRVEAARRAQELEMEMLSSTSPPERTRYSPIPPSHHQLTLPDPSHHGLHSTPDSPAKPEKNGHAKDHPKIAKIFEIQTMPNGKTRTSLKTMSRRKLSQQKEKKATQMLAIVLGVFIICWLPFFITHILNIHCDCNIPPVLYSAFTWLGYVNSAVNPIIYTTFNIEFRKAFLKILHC
T7 sequence (P34969 whole entry): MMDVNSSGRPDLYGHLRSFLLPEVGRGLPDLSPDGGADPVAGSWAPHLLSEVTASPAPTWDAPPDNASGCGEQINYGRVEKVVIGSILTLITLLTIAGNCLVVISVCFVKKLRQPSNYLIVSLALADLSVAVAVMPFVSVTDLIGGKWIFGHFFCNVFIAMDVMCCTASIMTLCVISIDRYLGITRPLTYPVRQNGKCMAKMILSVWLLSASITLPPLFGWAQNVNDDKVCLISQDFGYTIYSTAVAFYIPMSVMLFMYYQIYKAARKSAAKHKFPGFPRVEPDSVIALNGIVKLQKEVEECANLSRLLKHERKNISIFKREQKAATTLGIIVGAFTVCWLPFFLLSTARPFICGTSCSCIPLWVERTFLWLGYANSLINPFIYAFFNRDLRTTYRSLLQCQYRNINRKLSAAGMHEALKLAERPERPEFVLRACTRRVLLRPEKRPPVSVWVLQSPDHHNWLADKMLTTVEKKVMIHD
T4 sequence (P35462 whole entry): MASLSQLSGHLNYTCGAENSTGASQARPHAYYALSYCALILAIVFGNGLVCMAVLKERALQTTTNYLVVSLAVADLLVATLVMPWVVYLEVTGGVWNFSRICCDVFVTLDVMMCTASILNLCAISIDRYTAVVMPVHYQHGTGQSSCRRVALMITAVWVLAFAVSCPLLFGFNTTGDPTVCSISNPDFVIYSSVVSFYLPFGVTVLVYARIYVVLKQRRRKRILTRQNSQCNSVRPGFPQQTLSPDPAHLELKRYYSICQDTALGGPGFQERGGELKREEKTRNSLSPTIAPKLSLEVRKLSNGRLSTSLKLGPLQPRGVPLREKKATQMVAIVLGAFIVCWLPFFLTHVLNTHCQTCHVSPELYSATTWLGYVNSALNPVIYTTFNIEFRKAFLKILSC
D1, sequence (P21728 whole entry): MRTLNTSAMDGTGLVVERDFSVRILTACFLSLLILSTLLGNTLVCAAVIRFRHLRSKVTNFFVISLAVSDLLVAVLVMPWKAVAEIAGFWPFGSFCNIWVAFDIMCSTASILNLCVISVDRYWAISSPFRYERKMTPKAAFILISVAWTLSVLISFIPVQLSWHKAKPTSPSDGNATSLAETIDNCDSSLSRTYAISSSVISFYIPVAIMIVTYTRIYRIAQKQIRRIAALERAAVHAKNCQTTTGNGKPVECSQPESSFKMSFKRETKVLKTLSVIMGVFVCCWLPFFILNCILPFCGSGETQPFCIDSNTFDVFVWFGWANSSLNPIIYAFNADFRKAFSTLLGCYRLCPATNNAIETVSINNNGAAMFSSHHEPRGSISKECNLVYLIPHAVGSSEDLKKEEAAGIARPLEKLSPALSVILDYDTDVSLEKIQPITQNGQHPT
Human serotonin 5-HT6 receptor, sequence (P50406 whole entry): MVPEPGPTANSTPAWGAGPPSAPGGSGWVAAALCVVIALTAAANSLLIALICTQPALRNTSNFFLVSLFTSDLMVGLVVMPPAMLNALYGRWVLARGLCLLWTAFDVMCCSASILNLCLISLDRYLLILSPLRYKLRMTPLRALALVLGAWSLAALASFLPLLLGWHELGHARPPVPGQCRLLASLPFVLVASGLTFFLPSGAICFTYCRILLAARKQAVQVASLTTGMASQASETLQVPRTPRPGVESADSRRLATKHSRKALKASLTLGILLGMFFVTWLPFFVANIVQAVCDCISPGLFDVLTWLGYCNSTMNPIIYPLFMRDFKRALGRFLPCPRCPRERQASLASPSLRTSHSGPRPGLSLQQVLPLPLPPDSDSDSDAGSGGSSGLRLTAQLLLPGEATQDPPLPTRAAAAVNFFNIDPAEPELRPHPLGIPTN
T5 sequence (P28223 whole entry): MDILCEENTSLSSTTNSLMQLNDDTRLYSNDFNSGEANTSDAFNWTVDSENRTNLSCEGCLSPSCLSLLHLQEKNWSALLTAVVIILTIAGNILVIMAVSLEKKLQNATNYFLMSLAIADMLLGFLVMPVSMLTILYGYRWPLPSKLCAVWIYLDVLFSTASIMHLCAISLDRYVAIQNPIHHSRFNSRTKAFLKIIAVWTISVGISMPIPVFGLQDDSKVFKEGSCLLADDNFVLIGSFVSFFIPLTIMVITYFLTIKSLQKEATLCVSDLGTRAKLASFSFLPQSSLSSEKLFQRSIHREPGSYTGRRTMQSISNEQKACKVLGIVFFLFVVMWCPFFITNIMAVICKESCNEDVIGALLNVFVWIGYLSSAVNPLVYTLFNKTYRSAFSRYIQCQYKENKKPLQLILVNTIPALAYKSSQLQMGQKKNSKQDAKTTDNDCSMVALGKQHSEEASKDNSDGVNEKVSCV

SMILES	IC50 (hD4.2 receptor)	IC50 [1, 2]	IC50 [1, 3]	IC50 (5-HT1a)	IC50 (D1)	IC50 (hD2L receptor)	IC50 (hD3 receptor)	IC50 (5-HT2a)	melting point	IC50 (5-HT2c)	IC50 (5-HT7)
COc1cccc(CN2C(=O)N(Cc3ccccc3)c3cc(Cl)cc(N4CCN(C)CC4)c3S2(=O)=O)c1 [Example 17, 4-Benzyl-6-chloro-2-(3-methoxy-benzyl)-8-(4-methyl-piperazin-1-yl)-1,1-dioxo-1,4-dihydro-2H-1λ^6-benzo[1,2,4]thiadiazin-3-one]	> 10000 nM	10.9 nM	10.6 nM	1950 nM	4730 nM	4860 nM	537 nM	318 nM	85 to 86 °C	899 nM	> 10000 nM
C[C@@H](c1ccccc1)N1C(=O)N(Cc2ccccc2)c2cc(Cl)cc(N3CCN(C)CC3)c2S1(=O)=O [Example 26, 4-Benzyl-6-chloro-8-(4-methyl-piperazin-1-yl)-1,1-dioxo-2-[(S)-1-phenyl-ethyl]-1,4-dihydro-2H-1λ^6-benzo[1,2,4]thiadiazin-3-one]	> 10000 nM	2.4 nM	2.4 nM	589 nM	1760 nM	6580 nM	715 nM	145 nM	–	183 nM	8250 nM
CN1CCN(c2cc(Cl)cc3c2S(=O)(=O)N(c2ccccc2)C(=O)N3Cc2ccccc2)CC1 [Example 27, 4-Benzyl-6-chloro-8-(4-methyl-piperazin-1-yl)-1,1-dioxo-2-phenyl-1,4-dihydro-2H-1λ^6-benzo[1,2,4]thiadiazin-3-one]	> 10000 nM	3.8 nM	3.8 nM	2080 nM	2690 nM	> 10000 nM	5950 nM	4310 nM	–	2580 nM	> 10000 nM
Cc1cc(C)cc(CCCN2C(=O)N(Cc3ccccc3)c3cc(Cl)cc(N4CCN(C)CC4)c3S2(=O)=O)c1 [Example 38, 4-Benzyl-6-chloro-2-[3-(3,5-dimethyl-phenyl)-propyl]-8-(4-methyl-piperazin-1-yl)-1,1-dioxo-1,4-dihydro-2H-1λ^6-benzo[1,2,4]thiadiazin-3-one]	> 10000 nM	0.6 nM	0.6 nM	3420 nM	918 nM	> 10000 nM	336 nM	359 nM	–	508 nM	9140 nM
COc1cccc(CN2C(=O)N(Cc3ccccc3)c3cc(Cl)cc(N4CCNCC4)c3S2(=O)=O)c1 [Example 52, 4-Benzyl-6-chloro-2-(3-methoxy-benzyl)-1,1-dioxo-8-piperazin-1-yl-1,4-dihydro-2H-1λ^6-benzo[1,2,4]thiadiazin-3-one]	> 10000 nM	2 nM	5.8 nM	1860 nM	3140 nM	3220 nM	531 nM	1000 nM	98 to 100 °C	1350 nM	6780 nM
COc1ccc(CN2C(=O)N(Cc3ccccc3)c3cc(Cl)cc(N4CCNCC4)c3S2(=O)=O)cc1 [Example 53, 4-Benzyl-6-chloro-2-(4-methoxy-benzyl)-1,1-dioxo-8-piperazin-1-yl-1,4-dihydro-2H-1λ^6-benzo[1,2,4]thiadiazin-3-one]	> 10000 nM	11.8 nM	11.8 nM	3260 nM	> 10000 nM	2440 nM	844 nM	651 nM	–	961 nM	6580 nM
O=C1N(Cc2ccccc2)c2cc(Cl)cc(N3CCNCC3)c2S(=O)(=O)N1Cc1cccc(O)c1 [Example 54, 4-Benzyl-6-chloro-2-(3-hydroxy-benzyl)-1,1-dioxo-8-piperazin-1-yl-1,4-dihydro-2H-1λ^6-benzo[1,2,4]thiadiazin-3-one]	> 10000 nM	5.8 nM	1 nM	621 nM	4100 nM	2280 nM	804 nM	1150 nM	230 to 231 °C	1800 nM	> 10000 nM
C[C@H](c1ccccc1)N1C(=O)N(Cc2ccccc2)c2cc(Cl)cc(N3CCNCC3)c2S1(=O)=O [Example 58, 4-Benzyl-6-chloro-1,1-dioxo-2-[(R)-1-phenyl-ethyl]-8-piperazin-1-yl-1,4-dihydro-2H-1λ^6-benzo[1,2,4]thiadiazin-3-one]	> 10000 nM	2.3 nM	2.3 nM	> 10000 nM	1780 nM	4500 nM	398 nM	549 nM	–	424 nM	6390 nM
C[C@@H](c1ccccc1)N1C(=O)N(Cc2ccccc2)c2cc(Cl)cc(N3CCNCC3)c2S1(=O)=O [Example 59, 4-Benzyl-6-chloro-1,1-dioxo-2-[(S)-1-phenyl-ethyl]-8-piperazin-1-yl-1,4-dihydro-2H-1λ^6-benzo[1,2,4]thiadiazin-3-one]	> 10000 nM	3 nM	3 nM	1400 nM	4100 nM	4640 nM	403 nM	272 nM	–	508 nM	2300 nM
COc1cccc(N2C(=O)N(Cc3ccccc3)c3cc(Cl)cc(N4CCNCC4)c3S2(=O)=O)c1 [Example 62, 4-Benzyl-6-chloro-2-(3-methoxy-phenyl)-1,1-dioxo-8-piperazin-1-yl-1,4-dihydro-2H-1λ^6-benzo[1,2,4]thiadiazin-3-one]	> 10000 nM	10.2 nM	10.2 nM	926 nM	5590 nM	> 10000 nM	2370 nM	3170 nM	–	4960 nM	> 10000 nM
